Columns and labels:
[1] = system: TNF-α; assay: TNF-α expression inhibition in Raw264.7 by treatment time, Experiment 1-2; format: cell-based; conditions: LPS 100 ng/ml
[2] = system: TNF-α; assay: TNF-α expression inhibition in Raw264.7, comparison with tofacitinib, Experiment 2-2; format: cell-based; conditions: for TNF-α expression: 6 h pretreatment, LPS 10 ng/mL 16 h
[3] = system: TNF-α; assay: TNF-α expression inhibition in Raw264.7, comparison with hydroxychloroquine and proguanil, Experiment 2-3; format: cell-based
[4] = system: STAT3; assay: STAT3 activity (nuclear translocation) in Raw264.7, Experiment 3; format: cell-based; conditions: 50 ng/ml, 2 h pretreatment; LPS 100 ng/ml 16 h; Fig. 6
[5] = system: NF-ĸB(p65); assay: NF-kB activity (p65 nuclear translocation) in Raw264.7, Experiment 4; format: cell-based; conditions: 50 ng/ml, 2 h pretreatment; LPS 100 ng/ml 2 h; Fig. 7
[6] = system: rheumatoid arthritis model, DBA-1J Mice [류마티스 관절염 모델]; assay: Arthritis score in rheumatoid arthritis animal model, Experiment 5; format: in vivo, mouse
[7] = system: rheumatoid arthritis model, DBA-1J Mice [류마티스 관절염 모델]; assay: Arthritis score in rheumatoid arthritis animal model, dose regimen study, Experiment 6; format: in vivo, mouse
[8] = Hematological examination, Experiment 6-4; format: in vivo, mouse; conditions: for %BASO / %EOS / %LUC / %LYM / %MONO / %NEUT / %RETIC / HCT / HDW / HGB / MCH / MCV / MPV / PLT / RBC / RDW / WBC: Day 14
[9] = G3: MTX 2 mpk qd PO, G12: Py 15 mpk qd PO

## CCc1nc(N)nc(N)c1-c1ccc(Cl)cc1 [피리메타민, Pyrimethamine]
[1]; 2 or 50 ng/ml, 1 or 2 h
  TNF-α expression, concentration dependence: TNF-α의 발현량이 피리메타민의 농도 의존적으로 줄어드는
[1]; PYR 2 ng/ml, 1hr
  TNF-α expression: 916.0 pg/mL
[1]; PYR 2 ng/ml, 2hr
  TNF-α expression: 1101.2 pg/mL
[1]; PYR 50 ng/ml, 1hr
  TNF-α expression: 686.4 pg/mL
[1]; PYR 50 ng/ml, 2hr
  TNF-α expression: 889.0 pg/mL
[2]; PYR 50 ng/mL
  TNF-α expression: 185.3 pg/mL
[2]; PYR 100 ng/mL
  TNF-α expression: 53.3 pg/mL
[2]; Raw264.7, LPS 10 ng/ml 16 h
  TNF-α expression compared with tofacitinib: 토파시티닙과 달리 TNF-α의 발현량을 직접적으로 억제
[3]; PY 0.2 uM, HCQ 0.61 uM, PG 5 uM, LPS 10 ng/mL, 24 h co-treatment
  TNF-α expression: 667.9
[3]; drug treatment 2 h or 24 h, pyrimethamine 0.2 μM, proguanil 5 μM
  TNF-α expression inhibition: 히드록시클로로퀸과 비교하였을 때 피리메타민의 TNF-α 발현량 억제능이 월등함
[4]
  STAT3 nuclear translocation: LPS 16 시간 자극에 의한 STAT3의 핵이동을 억제함
[5]
  NF-ĸB(p65) activity: NF-ĸB(p65)의 활성이 현저히 저하
[6]; Day 0, G4: Py 10 mg/kg/day PO
  Arthritis score: 2.3±1.6 Total score
[6]; Day 0, G5: Py 30 mg/kg/day PO
  Arthritis score: 2.3±1.4 Total score
[6]; Day 2, G4: Py 10 mg/kg/day PO
  Arthritis score: 4.0±1.6 Total score
[6]; Day 2, G5: Py 30 mg/kg/day PO
  Arthritis score: 2.7±1.8 Total score
[6]; Day 4, G4: Py 10 mg/kg/day PO
  Arthritis score: 4.6±1.8 Total score
[6]; Day 4, G5: Py 30 mg/kg/day PO
  Arthritis score: 4.0±2.7 Total score
[6]; Day 7, G4: Py 10 mg/kg/day PO
  Arthritis score: 5.4±2.4 Total score
[6]; Day 7, G5: Py 30 mg/kg/day PO
  Arthritis score: 4.0±2.7 Total score
[6]; Day 9, G4: Py 10 mg/kg/day PO
  Arthritis score: 6.1±2.5 Total score
[6]; Day 9, G5: Py 30 mg/kg/day PO
  Arthritis score: 5.3±1.6 Total score
[6]; Day 11, G4: Py 10 mg/kg/day PO
  Arthritis score: 6.7±2.1 Total score
[6]; Day 11, G5: Py 30 mg/kg/day PO
  Arthritis score: 5.4±1.5 Total score
[6]; Day 14, G4: Py 10 mg/kg/day PO
  Arthritis score: 7.3±2.1 Total score
[6]; Day 14, G5: Py 30 mg/kg/day PO
  Arthritis score: 5.6±1.4 Total score
[6]; pyrimethamine groups, 10 and 30 mg/kg/day PO
  Arthritis score (in words): 관절염 지수가 현저하게 감소
[6]; pyrimethamine high dose (30 mg/kg/day) PO
  Arthritis score compared with methotrexate (in words): 메토트렉세이트 투여군에 비해 관절염 지수가 현저하게 낮은
[7]; Day 0, G7: Py 1 mg/kg/day QD IP
  Arthritis score: 2.5±1.0 total score
[7]; Day 0, G8: Py 1 mg/kg/day BID PO
  Arthritis score: 2.5±1.0 total score
[7]; Day 0, G9: Py 1 mg/kg/day QD PO
  Arthritis score: 2.5±1.0 total score
[7]; Day 0, G10: Py 3 mg/kg/day BID PO
  Arthritis score: 2.5±1.0 total score
[7]; Day 0, G11: Py 5 mg/kg QD PO
  Arthritis score: 2.5±1.2 total score
[7]; Day 0, G12: Py 15 mg/kg/day QD PO
  Arthritis score: 2.5±1.0 total score
[7]; Day 2, G7: Py 1 mg/kg/day QD IP
  Arthritis score: 4.7±1.6 total score
[7]; Day 2, G8: Py 1 mg/kg/day BID PO
  Arthritis score: 4.8±0.8 total score
[7]; Day 2, G9: Py 1 mg/kg/day QD PO
  Arthritis score: 4.7±1.4 total score
[7]; Day 2, G10: Py 3 mg/kg/day BID PO
  Arthritis score: 4.5±1.0 total score
[7]; Day 2, G11: Py 5 mg/kg QD PO
  Arthritis score: 4.3±2.0 total score
[7]; Day 2, G12: Py 15 mg/kg/day QD PO
  Arthritis score: 4.2±1.2 total score
[7]; Day 5, G7: Py 1 mg/kg/day QD IP
  Arthritis score: 7.2±1.9 total score
[7]; Day 5, G8: Py 1 mg/kg/day BID PO
  Arthritis score: 7.0±1.3 total score
[7]; Day 5, G9: Py 1 mg/kg/day QD PO
  Arthritis score: 6.8±1.7 total score
[7]; Day 5, G10: Py 3 mg/kg/day BID PO
  Arthritis score: 6.2±2.4 total score
[7]; Day 5, G11: Py 5 mg/kg QD PO
  Arthritis score: 5.8±2.5 total score
[7]; Day 5, G12: Py 15 mg/kg/day QD PO
  Arthritis score: 5.5±1.5 total score
[7]; Day 7, G7: Py 1 mg/kg/day QD IP
  Arthritis score: 9.2±1.5 total score
[7]; Day 7, G8: Py 1 mg/kg/day BID PO
  Arthritis score: 9.5±1.5 total score
[7]; Day 7, G9: Py 1 mg/kg/day QD PO
  Arthritis score: 9.3±2.0 total score
[7]; Day 7, G10: Py 3 mg/kg/day BID PO
  Arthritis score: 7.8±2.9 total score
[7]; Day 7, G11: Py 5 mg/kg QD PO
  Arthritis score: 6.7±2.2 total score
[7]; Day 7, G12: Py 15 mg/kg/day QD PO
  Arthritis score: 6.3±2.0 total score
[7]; Day 9, G7: Py 1 mg/kg/day QD IP
  Arthritis score: 9.8±1.9 total score
[7]; Day 9, G8: Py 1 mg/kg/day BID PO
  Arthritis score: 10.3±2.2 total score
[7]; Day 9, G9: Py 1 mg/kg/day QD PO
  Arthritis score: 10.5±2.7 total score
[7]; Day 9, G10: Py 3 mg/kg/day BID PO
  Arthritis score: 8.2±2.9 total score
[7]; Day 9, G11: Py 5 mg/kg QD PO
  Arthritis score: 7.5±3.0 total score
[7]; Day 9, G12: Py 15 mg/kg/day QD PO
  Arthritis score: 7.5±2.1 total score
[7]; Day 12, G7: Py 1 mg/kg/day QD IP
  Arthritis score: 11.2±2.5 total score
[7]; Day 12, G8: Py 1 mg/kg/day BID PO
  Arthritis score: 11.7±2.7 total score
[7]; Day 12, G9: Py 1 mg/kg/day QD PO
  Arthritis score: 12.0±2.6 total score
[7]; Day 12, G10: Py 3 mg/kg/day BID PO
  Arthritis score: 9.8±2.9 total score
[7]; Day 12, G11: Py 5 mg/kg QD PO
  Arthritis score: 8.8±2.5 total score
[7]; Day 12, G12: Py 15 mg/kg/day QD PO
  Arthritis score: 7.7±2.1 total score
[7]; Day 14, G7: Py 1 mg/kg/day QD IP
  Arthritis score: 11.7±2.7 total score
[7]; Day 14, G8: Py 1 mg/kg/day BID PO
  Arthritis score: 12.3±2.9 total score
[7]; Day 14, G9: Py 1 mg/kg/day QD PO
  Arthritis score: 12.7±2.9 total score
[7]; Day 14, G10: Py 3 mg/kg/day BID PO
  Arthritis score: 10.5±3.0 total score
[7]; Day 14, G11: Py 5 mg/kg QD PO
  Arthritis score: 9.5±2.6 total score
[7]; Day 14, G12: Py 15 mg/kg/day QD PO
  Arthritis score: 8.2±2.0 total score
[7]; Py 1 mg/kg/day QD PO and IP, 1 and 3 mg/kg/day BID PO, 5 mg/kg/day QD PO
  Arthritis score (in words): 관절염 지수가 개선되지 않은
[7]; Py 15 mg/kg/day QD PO
  Arthritis score (in words): 관절염 지수가 현저하게 감소
[8]; [9]
  %BASO: 0.4±0.3%
  %EOS: 1.5±0.4%
  %LUC: 1.5±1%
  %LYM: 40.4±4.1%
  %MONO: 4.2±0.8%
  %NEUT: 52±5.2%
  %RETIC: 3.85±0.63%
  HCT: 46±2.5%
  HDW: 2.15 ± 0.13 g/dL
  HGB: 12.6 ± 0.7 g/dL
  MCH: 13.1 ± 0.4 pg
  MCV: 47.8 ± 1.5 fL
  MPV: 6.3 ± 0.1 fL
  PLT: 1211±176 10^3 cell/μL
  RBC: 9.63±0.75 10^6 cell/μL
  RDW: 24.2±2.2%
  WBC: 3.58±1.19 10^3 cell/μL
[8]; G7: Py 1 mpk qd IP
  %BASO: 0.8±0.1%
  %EOS: 1.2±0.2%
  %LUC: 2.8±1.3%
  %LYM: 49.2±3.5%
  %MONO: 6.1±2.1%
  %NEUT: 40±3.5%
  %RETIC: 5.1±0.9%
  HCT: 43.6±3.2%
  HDW: 2.33 ± 0.15 g/dL
  HGB: 11.9 ± 0.7 g/dL
  MCH: 12.3 ± 0.2 pg
  MCV: 45.1 ± 0.8 fL
  MPV: 7.5 ± 0.6 fL
  PLT: 403±182 10^3 cell/μL
  RBC: 9.68±0.63 10^6 cell/μL
  RDW: 22±2.8%
  WBC: 5.4±2.01 10^3 cell/μL
[8]; G8: Py 1 mpk qd PO
  %BASO: 0.6±0.2%
  %EOS: 1.6±0.5%
  %LUC: 2±0.8%
  %LYM: 45±8.1%
  %MONO: 4.7±1.2%
  %NEUT: 46.3±9.0%
  %RETIC: 6.74±3.63%
  HCT: 44.8±2.5%
  HDW: 2.31 ± 0.25 g/dL
  HGB: 12.3 ± 0.6 g/dL
  MCH: 12.6 ± 0.4 pg
  MCV: 45.6 ± 0.9 fL
  MPV: 6.3 ± 0.1 fL
  PLT: 1380±72 10^3 cell/μL
  RBC: 9.82±0.67 10^6 cell/μL
  RDW: 21.5±3%
  WBC: 2.67±0.58 10^3 cell/μL
[8]; G7, intraperitoneal injection
  Hematotoxicity (in words): 혈소판 수치가 감소하는 독성이 나타났다
[8]; oral groups G8-G12
  Hematotoxicity (in words): 혈액 독성이 나타나지 않음
